# Measurements reported in patent US11987808B2, “Method of human periferic sensory neurons differenciation from human stem cells and uses thereof” (L'OREAL, priority 2017, dated 2024).
# “Also recorded” adds a separate entry of the source.
# Experiments:
# [1] = system: hiPS cells derived sensory neurons (TRPV1 activity / substance P release); assay: Substance P release (ELISA) from hiPSC-derived sensory neurons after treatment with TRPV1 agonists and antagonists; type: cell-based, human
# Protocol: Substance P release measured in the supernatant of sensory neurons culture after incubating 1 h at 37° C. in the presence of ligands. CAP: capsaicin; CPZ: capsazepine; RR: ruthenium red; AEA: anandamide (10 μM); KCl: high potassium solution (70 mM).
# Substance P (SP) levels were determined using a commercially available ELISA kit (Cayman), following the manufacturer's instructions. Sensory neurons were cultured in a culture vessel in 24-well culture vessels at high confluence. After 24 h, cells were rinsed with fluorimetry buffer and incubated with different concentrations of agonists of TRPV1 for 45 minutes in the same buffer. When an antagonist was used, it was applied 15 minutes before, then the solution was changed to agonist plus antagonist. Subsequently, the supernatants were collected and immediately used with the ELISA kit. All experiments were performed in triplicate and absorbance levels were measured in a microculture vessel reader.
# PSNs respond to irritants, such as capsaicin, via release of neuropeptides at the epidermal end and glutamate and neuropeptides in the dorsal horn of the medulla (Basbaum et al., Cellular and molecular mechanisms of pain. Cell. 2009; 139:267-284). To verify if the sensory neurons were functional with respect to neuropeptide release, after D33 they were plated onto 24-well plates and treated 10 days with HEKn conditioned medium.
# [2] = system: TRPV1 in hiPS cells derived sensory neurons; assay: Calcium release assay (Fura-2 imaging) in hiPS cells derived sensory neurons; type: cell-based, human; details: Fura-2 340/380 nm, capsaicin 100 nM in FIG. 5
# Protocol: Phase contrast image for cell localization (a) fluorescence image of basal calcium levels (b). Calcium responses in sensory neurons after 100 nM capsaicin (c) and 70 mM KCL treatment (d). Calcium imaging of sensory neurons with conversion of Fura-2 excitation ratio (340/380 nm) to pseudo color, according to the scale on the left of each image. Arrows indicate active cells.
# Neurons were cultured in a culture vessel onto PLO and Laminin-treated coverslips (where they were treated with HEKn conditioned medium for 10 days. On the day of the experiment, the medium was removed and cells were incubated with fresh medium (without factors) containing 5 μM Fura-2 AM (Molecular Probes) and 0.04% pluronic acid for one hour at 37° C. Then this solution was replaced with fluorimetry buffer, composed of (in mM): 145 NaCl, 5 KCl, 1.2 NaHPO4, 1.5 CaCl2, 10 D-glucose, 5 HEPES pH 7.4. If an antagonist was used, it was added to this solution at this time. After 30 minutes at 37° C., the coverslips were taken to an inverted microscope (Nikon) equipped with a CCD Camera (Orca, Hamamatsu Photonics) and Lambda DG-4 light source (Sutter Instrument). The images were acquired every 500 milliseconds via MetaFluor software (Molecular Probes) and the levels of fluorescence were represented in pseudo-color. […]
# [3] = system: cultured human epidermal keratinocytes; details: Inoue et al. 2002; cited from earlier work
# human skin fibroblasts = details: Kim et al. 2006; cited from earlier work
# TRPV1 = details: Zygmunt et al. 1999; cited from earlier work
smiles,measurement,setting,value
COc1cc(CNC(=O)CCCC/C=C/C(C)C)ccc1O [capsaicin],Substance P release relative to basal level,"[1]; capsaicin 300 nM, neurons treated 10 days with HEKn conditioned medium",triple that amount
same,Substance P release,[1]; capsaicin 3 μM,did not show increased release
same,Calcium increases mediated by TRPV1 activation (calcium signals),[2],modest
same,Calcium increases mediated by TRPV1 activation (calcium signals),[2]; listed as Capsaicin,activity could be detected
same,Intracellular calcium concentration,[3],produced elevations in the intracellular calcium concentration
same,Membrane current and intracellular calcium level,human skin fibroblasts,induced significant changes in the membrane current and the intracellular calcium level
[Cl-].[K+] [high potassium solution],Substance P release,[1]; high potassium solution 70 mM,substance P release equivalent to capsaicin 300 r1M
Oc1cc2c(cc1O)CN(C(=S)NCCc1ccc(Cl)cc1)CCC2 [capsazepine],Block of capsaicin-induced substance P release,"[1]; co-treatment with capsazepine 1 μM, capsaicin 300 nM",efficiently blocked
same,Inhibition of capsaicin-/acidification-induced calcium increases,[3],inhibited
same,Antagonism of capsaicin-induced changes,human skin fibroblasts,antagonized
N.N.N.N.N.N.N.N.N.N.N.N.N.N.[Cl-].[Cl-].[Cl-].[Cl-].[Cl-].[Cl-].[O-2].[O-2].[Ru+3].[Ru+3].[Ru+4] [ruthenium red],Substance P release relative to basal levels,[1]; pre-incubation with ruthenium red 10 μM followed by capsaicin 3 μM,seemed to decrease substance P release below basal levels
CCCCC/C=C\C/C=C\C/C=C\C/C=C\CCCC(=O)NCCO [anandamide],Substance P release,[1]; anandamide 10 μM,evoked the highest substance P release; also recorded: caused a release of substance P
same,"Substance P release, increase compared to control","[1]; anandamide 10 μM, supernatant of sensory neurons culture after 1 h at 37° C.",887%
same,EC50 at TRPV1 compared with CB1,TRPV1,an order of magnitude higher
